In ChEMBL document CHEMBL1131838, “8-acenaphthen-1-yl-1-phenyl-1,3,8-triaza-spiro[4.5]decan-4-one derivatives as orphanin FQ receptor agonists” (Bioorg Med Chem Lett, 1999):
Active and inactive are the calls of the source. No cut-off for these calls is given here.

Assays:
[1] = Compound was evaluated for the opioid receptor agonistic activity at dose 1-10 mg/kg by intraperitoneal administration; Inactive; assay type: functional, organism-based
Rattus norvegicus [2] = assay: Spontaneous locomotion in rats was determined and distance moved was reported at dose 3.2 mg/kg by ip administration; assay type: functional; conditions: route intraperitoneal
D(4) dopamine receptor = biological target: T1, D(4) dopamine receptor (Homo sapiens, UniProt P21917); assay: Affinity against Dopamine receptor D4.4
T1 sequence (P21917 whole entry): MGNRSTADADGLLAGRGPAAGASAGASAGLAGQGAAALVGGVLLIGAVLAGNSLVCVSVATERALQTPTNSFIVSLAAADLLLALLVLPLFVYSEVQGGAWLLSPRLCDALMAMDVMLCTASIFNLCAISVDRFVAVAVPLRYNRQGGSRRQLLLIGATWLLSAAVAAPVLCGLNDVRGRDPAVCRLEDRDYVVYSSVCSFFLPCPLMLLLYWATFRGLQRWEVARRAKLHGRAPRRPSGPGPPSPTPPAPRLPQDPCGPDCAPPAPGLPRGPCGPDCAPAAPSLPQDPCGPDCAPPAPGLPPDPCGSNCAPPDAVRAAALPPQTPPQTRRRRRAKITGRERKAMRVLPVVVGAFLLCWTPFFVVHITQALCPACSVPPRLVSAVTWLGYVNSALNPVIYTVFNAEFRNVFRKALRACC

[3] = biological target: 5-hydroxytryptamine receptor 7 (Homo sapiens, UniProt P34969); assay: Affinity against 5-hydroxytryptamine 7 receptor
[4] = biological target: 5-hydroxytryptamine receptor 6 (Homo sapiens, UniProt P50406); assay: Affinity against 5-hydroxytryptamine 6 receptor
D(1A) dopamine receptor = D(1A) dopamine receptor (Mus musculus, UniProt Q61616); assay: Affinity against Dopamine receptor D1
[5] = biological target: 5-hydroxytryptamine receptor 1D (Homo sapiens, UniProt P28221); assay: Affinity against 5-hydroxytryptamine 1D receptor alpha
[6] = biological target: T2, Corticotropin-releasing factor receptor 1 (Rattus norvegicus, UniProt P35353); assay: Affinity against Corticotropin releasing factor receptor 1
T2 sequence (P35353 whole entry): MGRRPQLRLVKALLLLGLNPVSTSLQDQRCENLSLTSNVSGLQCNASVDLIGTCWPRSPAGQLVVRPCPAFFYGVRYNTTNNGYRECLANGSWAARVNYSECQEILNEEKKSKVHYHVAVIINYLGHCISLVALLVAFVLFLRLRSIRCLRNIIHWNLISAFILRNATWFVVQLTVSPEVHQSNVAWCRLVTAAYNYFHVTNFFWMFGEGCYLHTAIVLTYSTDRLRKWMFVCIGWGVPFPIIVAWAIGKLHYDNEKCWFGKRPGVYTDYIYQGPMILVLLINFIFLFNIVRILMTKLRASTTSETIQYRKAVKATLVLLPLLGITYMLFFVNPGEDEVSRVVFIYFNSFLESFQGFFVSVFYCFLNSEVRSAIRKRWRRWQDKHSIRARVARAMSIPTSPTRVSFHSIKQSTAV

Rattus norvegicus [7] = assay: Spontaneous locomotion in rats was determined and distance moved was reported at dose 0.32 mg/kg by ip administration; assay type: functional; conditions: route intraperitoneal
[8] = Affinity against Corticotropin releasing factor receptor 2 alpha
D(3) dopamine receptor = D(3) dopamine receptor (Homo sapiens, UniProt P35462); assay: Affinity against Dopamine receptor D3
Rattus norvegicus [9] = assay: Forced motor performance in rats was determined and traction test score was reported at 0.32 mg/kg by ip administration; assay type: functional; conditions: route intraperitoneal
Rattus norvegicus [10] = assay: Forced motor performance in rats was determined and traction test score was reported at 3.2 mg/kg by ip administration; assay type: functional; conditions: route intraperitoneal
Rattus norvegicus [11] = assay: Forced motor performance in rats was determined and grip strength was reported at 0.32 mg/kg by ip administration; assay type: functional; conditions: route intraperitoneal
Rattus norvegicus [12] = assay: Forced motor performance in rats was determined and traction test score was reported at 1 mg/kg by ip administration; assay type: functional; conditions: route intraperitoneal
Rattus norvegicus [13] = assay: Forced motor performance in rats was determined and grip strength was reported at 1 mg/kg by ip administration; assay type: functional; conditions: route intraperitoneal
[14] = biological target: GABA-A receptor; anion channel; assay: Binding affinity for GABA-A central benzodiazepine receptor; assay type: protein-complex assay
[15] = biological target: 5-hydroxytryptamine receptor 2A (Homo sapiens, UniProt P28223); assay: Affinity against 5-hydroxytryptamine 2A receptor
D(2) dopamine receptor = D(2) dopamine receptor (Homo sapiens, UniProt P14416); assay: Affinity against Dopamine receptor D2
Rattus norvegicus [16] = assay: Spontaneous locomotion in rats was determined and distance moved was reported at dose 1 mg/kg by ip administration; assay type: functional; conditions: route intraperitoneal
Rattus norvegicus [17] = assay: Forced motor performance in rats was determined and grip strength was reported at 3.2 mg/kg by ip administration; assay type: functional; conditions: route intraperitoneal
[18] = biological target: T3, 5-hydroxytryptamine receptor 2C (Homo sapiens, UniProt P28335); assay: Affinity against 5-hydroxytryptamine 2C receptor
T3 sequence (P28335 whole entry): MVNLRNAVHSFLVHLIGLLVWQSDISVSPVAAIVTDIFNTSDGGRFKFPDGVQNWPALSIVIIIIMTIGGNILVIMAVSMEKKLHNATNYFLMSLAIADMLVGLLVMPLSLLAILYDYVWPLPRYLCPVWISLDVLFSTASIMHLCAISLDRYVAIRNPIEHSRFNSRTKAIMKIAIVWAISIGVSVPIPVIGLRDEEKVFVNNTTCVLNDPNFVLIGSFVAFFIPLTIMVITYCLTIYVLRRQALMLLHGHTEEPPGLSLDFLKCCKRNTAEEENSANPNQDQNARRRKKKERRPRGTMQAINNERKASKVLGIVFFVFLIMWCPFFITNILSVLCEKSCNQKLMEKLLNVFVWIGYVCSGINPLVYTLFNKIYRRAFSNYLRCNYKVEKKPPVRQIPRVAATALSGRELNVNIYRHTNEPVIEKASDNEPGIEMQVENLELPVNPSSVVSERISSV

Chain of D(2) dopamine receptor (P14416 whole entry): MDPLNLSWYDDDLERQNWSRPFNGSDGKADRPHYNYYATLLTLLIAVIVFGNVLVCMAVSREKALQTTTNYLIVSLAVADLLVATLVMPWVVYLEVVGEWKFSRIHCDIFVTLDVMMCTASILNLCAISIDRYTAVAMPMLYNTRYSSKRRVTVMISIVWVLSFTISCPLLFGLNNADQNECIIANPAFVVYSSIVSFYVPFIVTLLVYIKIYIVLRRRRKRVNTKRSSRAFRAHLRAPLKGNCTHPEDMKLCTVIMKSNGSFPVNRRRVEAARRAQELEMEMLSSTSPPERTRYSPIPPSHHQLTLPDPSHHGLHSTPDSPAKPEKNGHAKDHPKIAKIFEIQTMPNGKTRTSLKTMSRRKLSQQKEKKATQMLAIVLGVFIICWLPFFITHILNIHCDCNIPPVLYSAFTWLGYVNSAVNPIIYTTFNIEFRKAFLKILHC
Chain of D(3) dopamine receptor (P35462 whole entry): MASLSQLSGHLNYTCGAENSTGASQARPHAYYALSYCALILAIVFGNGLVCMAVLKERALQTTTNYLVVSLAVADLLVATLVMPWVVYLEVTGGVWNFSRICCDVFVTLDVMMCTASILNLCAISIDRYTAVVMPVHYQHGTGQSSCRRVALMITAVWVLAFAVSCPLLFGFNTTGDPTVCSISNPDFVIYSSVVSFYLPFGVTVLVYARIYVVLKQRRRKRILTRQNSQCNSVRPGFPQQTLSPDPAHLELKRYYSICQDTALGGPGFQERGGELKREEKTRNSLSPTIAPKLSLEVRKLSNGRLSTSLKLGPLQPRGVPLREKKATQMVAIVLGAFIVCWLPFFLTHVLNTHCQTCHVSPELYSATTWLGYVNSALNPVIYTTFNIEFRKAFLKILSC
Chain of D(1A) dopamine receptor (Q61616 whole entry): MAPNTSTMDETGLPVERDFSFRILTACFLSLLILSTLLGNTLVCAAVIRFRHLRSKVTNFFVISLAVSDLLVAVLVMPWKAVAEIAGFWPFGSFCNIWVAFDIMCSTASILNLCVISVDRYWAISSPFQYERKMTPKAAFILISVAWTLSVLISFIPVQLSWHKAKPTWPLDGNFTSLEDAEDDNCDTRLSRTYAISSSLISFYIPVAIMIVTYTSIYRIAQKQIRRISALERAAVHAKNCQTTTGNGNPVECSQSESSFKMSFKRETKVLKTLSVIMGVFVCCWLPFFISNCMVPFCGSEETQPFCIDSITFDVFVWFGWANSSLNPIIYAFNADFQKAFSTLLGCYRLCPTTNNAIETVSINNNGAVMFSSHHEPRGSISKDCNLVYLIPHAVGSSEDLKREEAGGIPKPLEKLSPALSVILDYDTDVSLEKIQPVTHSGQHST
Chain of 5-hydroxytryptamine receptor 7 (P34969 whole entry): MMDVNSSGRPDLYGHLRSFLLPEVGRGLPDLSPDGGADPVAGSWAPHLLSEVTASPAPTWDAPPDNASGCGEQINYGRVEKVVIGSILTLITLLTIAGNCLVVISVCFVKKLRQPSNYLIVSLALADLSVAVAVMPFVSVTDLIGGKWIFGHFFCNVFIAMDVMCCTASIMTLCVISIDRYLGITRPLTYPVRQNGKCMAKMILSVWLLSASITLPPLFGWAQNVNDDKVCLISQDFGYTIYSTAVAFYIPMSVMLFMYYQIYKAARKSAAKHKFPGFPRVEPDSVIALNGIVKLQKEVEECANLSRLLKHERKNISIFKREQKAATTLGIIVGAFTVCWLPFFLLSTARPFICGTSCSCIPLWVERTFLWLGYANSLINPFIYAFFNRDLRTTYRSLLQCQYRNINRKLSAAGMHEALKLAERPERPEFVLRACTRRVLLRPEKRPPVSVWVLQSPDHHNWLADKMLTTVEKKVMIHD
Chain of 5-hydroxytryptamine receptor 6 (P50406 whole entry): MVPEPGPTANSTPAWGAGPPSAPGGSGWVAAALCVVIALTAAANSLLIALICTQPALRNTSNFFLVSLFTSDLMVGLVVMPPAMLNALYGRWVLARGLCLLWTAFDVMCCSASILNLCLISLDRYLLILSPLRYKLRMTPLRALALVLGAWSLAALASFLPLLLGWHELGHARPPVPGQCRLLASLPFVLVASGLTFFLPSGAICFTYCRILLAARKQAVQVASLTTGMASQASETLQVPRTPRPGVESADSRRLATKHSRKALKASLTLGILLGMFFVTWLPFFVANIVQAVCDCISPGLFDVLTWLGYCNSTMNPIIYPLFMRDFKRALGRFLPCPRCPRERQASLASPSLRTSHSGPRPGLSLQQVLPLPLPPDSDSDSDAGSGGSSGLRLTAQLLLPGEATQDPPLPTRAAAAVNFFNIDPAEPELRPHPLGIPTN
Chain of 5-hydroxytryptamine receptor 2A (P28223 whole entry): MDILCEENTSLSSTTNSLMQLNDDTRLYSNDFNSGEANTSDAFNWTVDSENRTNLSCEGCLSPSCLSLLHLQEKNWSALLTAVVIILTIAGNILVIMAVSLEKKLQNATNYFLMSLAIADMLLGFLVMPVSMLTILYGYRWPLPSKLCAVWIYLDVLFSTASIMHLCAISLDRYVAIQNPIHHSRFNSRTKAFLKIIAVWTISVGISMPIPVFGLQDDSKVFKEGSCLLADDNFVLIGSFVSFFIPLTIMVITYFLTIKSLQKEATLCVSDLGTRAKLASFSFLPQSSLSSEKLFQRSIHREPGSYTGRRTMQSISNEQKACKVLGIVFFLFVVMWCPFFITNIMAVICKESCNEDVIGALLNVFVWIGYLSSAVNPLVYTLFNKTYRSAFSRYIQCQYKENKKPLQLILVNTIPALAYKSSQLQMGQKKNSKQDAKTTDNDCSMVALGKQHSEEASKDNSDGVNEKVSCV
Chain of 5-hydroxytryptamine receptor 1D (P28221 whole entry): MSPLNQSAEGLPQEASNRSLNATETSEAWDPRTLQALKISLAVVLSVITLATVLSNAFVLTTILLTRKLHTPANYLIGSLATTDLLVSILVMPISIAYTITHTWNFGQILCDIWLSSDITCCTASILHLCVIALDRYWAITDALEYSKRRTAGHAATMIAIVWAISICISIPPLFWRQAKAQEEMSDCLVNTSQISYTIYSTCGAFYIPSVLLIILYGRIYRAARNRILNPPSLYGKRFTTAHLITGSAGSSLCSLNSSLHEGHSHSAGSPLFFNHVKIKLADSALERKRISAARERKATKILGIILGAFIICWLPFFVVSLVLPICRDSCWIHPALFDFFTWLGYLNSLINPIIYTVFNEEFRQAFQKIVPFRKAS

With `CN1CC[C@]23c4c5ccc(O)c4O[C@H]2[C@@H](O)C=C[C@H]3[C@H]1C5` the Activity [1] was “inactive”.
With `O=C1NCN(c2ccccc2)C12CCN([C@@H]1Cc3cccc4cccc1c34)CC2` the Locomotion (Rattus norvegicus [2]) was 1141.08 cm, the “Log Ki” value (D(4) dopamine receptor) was < -6.5 and the “Log Ki” value [3] was < -6.5. For the same molecule, the “Log Ki” value [4] was < -6.5, the “Log Ki” value (D(1A) dopamine receptor) was < -6.5 and the “Log Ki” value [5] was < -6.5. For the same molecule, the “Log Ki” value [6] was < -6.5, the Locomotion (Rattus norvegicus [7]) was 1412.39 cm and the “Log Ki” value [8] was < -6.5. For the same molecule, the “Log Ki” value (D(3) dopamine receptor) was < -6.5, the Traction test (Rattus norvegicus [9]) was 4 score and the Traction test (Rattus norvegicus [10]) was 3.75 score. For the same molecule, the Grip strength (Rattus norvegicus [11]) was 516.25 g, the Traction test (Rattus norvegicus [12]) was 4 score and the Grip strength (Rattus norvegicus [13]) was 521.63 g. The “Log Ki” value [14] was < -6.5, the “Log Ki” value [15] was < -6.5 and the “Log Ki” value (D(2) dopamine receptor) was < -6.5. For the same molecule, the Locomotion (Rattus norvegicus [16]) was 1465.79 cm, the Grip strength (Rattus norvegicus [17]) was 479 g and the “Log Ki” value [18] was < -6.5.
